Tests used:
Assay in all cases: KINOMEscan
Format in all cases: binding
Conditions in all cases: 2000 nM
[1] = molecular target: T1, ABL1(F317I)-nonphosphorylated (Homo sapiens, UniProt P00519, F317I)
T1 construct: DNA label (qPCR read-out); purchased DiscoverX (KINOMEscan service)

[2] = molecular target: ABL1(T315I)-phosphorylated (Homo sapiens, UniProt P00519, T315I)
[3] = molecular target: ABL1(Y253F)-phosphorylated (Homo sapiens, UniProt P00519, Y253F)
[4] = molecular target: T2, ANKK1 (Homo sapiens, UniProt Q8NFD2)
T2 construct: DNA label (qPCR read-out); purchased KINOMEscan scanMAX panel (DiscoveRx)
T2 sequence (Q8NFD2 whole entry): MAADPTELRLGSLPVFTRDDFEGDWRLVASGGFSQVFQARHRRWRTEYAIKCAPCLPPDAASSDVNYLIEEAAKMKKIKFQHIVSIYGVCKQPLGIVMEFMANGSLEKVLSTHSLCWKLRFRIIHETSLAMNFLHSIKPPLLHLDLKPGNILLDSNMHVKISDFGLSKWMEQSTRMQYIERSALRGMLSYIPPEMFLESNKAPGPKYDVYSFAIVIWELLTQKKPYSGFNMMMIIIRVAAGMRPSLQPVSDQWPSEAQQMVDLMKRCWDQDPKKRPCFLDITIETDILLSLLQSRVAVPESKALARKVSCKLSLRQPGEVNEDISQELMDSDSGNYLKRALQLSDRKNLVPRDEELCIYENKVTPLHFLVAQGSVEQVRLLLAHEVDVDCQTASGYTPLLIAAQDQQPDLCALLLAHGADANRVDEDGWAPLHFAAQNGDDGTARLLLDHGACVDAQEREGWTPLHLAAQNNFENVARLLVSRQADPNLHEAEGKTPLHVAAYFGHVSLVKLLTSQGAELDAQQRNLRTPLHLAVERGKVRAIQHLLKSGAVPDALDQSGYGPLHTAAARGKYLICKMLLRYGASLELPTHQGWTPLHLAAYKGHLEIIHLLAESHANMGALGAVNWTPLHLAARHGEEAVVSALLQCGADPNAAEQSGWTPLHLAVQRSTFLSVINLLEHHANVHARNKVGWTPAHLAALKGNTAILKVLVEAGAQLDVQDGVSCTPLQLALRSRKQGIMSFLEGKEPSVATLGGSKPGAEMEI

[5] = molecular target: T3, ARK5 (Homo sapiens, UniProt O60285)
T3 construct: DNA label (qPCR read-out); purchased KINOMEscan scanMAX panel (DiscoveRx)

[6] = molecular target: T4, BRAF (Homo sapiens, UniProt P15056)
T4 construct: DNA label (for qPCR read-out); purchased KINOMEscan scanMAX panel (DiscoveRx)
T4 sequence (P15056 whole entry): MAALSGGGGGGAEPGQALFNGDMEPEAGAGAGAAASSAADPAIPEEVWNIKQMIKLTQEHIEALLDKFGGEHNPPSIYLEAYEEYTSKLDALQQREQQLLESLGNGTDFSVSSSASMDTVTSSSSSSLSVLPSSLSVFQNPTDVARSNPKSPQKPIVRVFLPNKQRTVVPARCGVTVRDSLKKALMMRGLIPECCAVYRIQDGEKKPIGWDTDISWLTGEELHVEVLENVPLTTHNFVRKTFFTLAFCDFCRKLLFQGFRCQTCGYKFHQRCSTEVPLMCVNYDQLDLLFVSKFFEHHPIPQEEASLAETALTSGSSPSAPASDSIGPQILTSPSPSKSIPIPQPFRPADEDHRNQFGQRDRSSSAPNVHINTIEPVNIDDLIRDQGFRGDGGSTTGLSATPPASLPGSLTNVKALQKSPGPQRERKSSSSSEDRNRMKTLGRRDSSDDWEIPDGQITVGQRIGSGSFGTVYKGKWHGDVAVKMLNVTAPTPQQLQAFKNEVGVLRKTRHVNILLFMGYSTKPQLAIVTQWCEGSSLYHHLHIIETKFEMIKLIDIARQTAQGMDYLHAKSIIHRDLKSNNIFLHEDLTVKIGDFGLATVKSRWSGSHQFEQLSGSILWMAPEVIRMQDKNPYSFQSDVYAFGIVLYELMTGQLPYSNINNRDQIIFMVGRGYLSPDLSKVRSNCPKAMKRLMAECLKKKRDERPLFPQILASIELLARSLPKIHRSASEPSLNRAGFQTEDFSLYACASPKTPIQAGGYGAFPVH

[7] = molecular target: T5, CTK (Homo sapiens, UniProt P42679)
T5 construct: DNA label; purchased DiscoveRx (KINOMEscan scanMAX panel)

[8] = molecular target: T6, DAPK3 (Homo sapiens, UniProt O43293)
T6 construct: DNA label; purchased DiscoveRx (KINOMEscan scanMAX panel)

[9] = molecular target: T7, EGFR(G719C) (Homo sapiens, UniProt P00533, G719C)
T7 construct: purchased DiscoveRx (KINOMEscan scanMAX panel)

[10] = molecular target: T8, EPHB4 (Homo sapiens, UniProt P54760)
T8 construct: purchased DiscoveRx (KINOMEscan scanMAX panel)

[11] = molecular target: T9, FLT3(N841I) (Homo sapiens, UniProt P36888, N841I)
T9 construct: purchased KINOMEscan (DiscoveRx)

[12] = molecular target: T10, FLT4 (Homo sapiens, UniProt P35916)
T10 construct: purchased KINOMEscan (DiscoveRx)

[13] = molecular target: T11, LATS1 (Homo sapiens, UniProt O95835)
T11 construct: purchased KINOMEscan (DiscoveRx) panel service

[14] = molecular target: MARK3 (Homo sapiens, UniProt P27448)
MARK3, sequence (P27448 whole entry): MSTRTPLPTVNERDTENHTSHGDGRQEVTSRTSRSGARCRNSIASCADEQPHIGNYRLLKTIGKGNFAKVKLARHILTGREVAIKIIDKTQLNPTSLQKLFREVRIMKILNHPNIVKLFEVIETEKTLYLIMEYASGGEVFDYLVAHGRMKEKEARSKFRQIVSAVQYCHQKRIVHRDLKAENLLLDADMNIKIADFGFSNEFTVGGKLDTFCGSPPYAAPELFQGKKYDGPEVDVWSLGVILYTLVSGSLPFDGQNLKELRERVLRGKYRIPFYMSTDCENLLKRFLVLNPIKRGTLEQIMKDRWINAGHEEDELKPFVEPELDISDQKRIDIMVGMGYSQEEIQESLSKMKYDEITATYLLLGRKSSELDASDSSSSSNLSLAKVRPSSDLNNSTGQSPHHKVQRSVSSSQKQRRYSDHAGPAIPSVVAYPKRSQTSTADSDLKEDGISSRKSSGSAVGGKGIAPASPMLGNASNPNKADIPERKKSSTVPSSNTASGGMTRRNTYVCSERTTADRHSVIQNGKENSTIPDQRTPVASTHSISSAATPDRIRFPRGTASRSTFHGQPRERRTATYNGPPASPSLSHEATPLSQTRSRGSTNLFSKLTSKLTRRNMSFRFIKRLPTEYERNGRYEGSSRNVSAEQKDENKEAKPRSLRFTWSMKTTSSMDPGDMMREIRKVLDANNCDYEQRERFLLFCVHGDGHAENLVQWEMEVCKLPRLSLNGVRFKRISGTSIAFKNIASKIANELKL

[15] = molecular target: T12, MEK2 (Homo sapiens, UniProt P36507)
T12 construct: purchased DiscoveRx (KINOMEscan scanMAX panel, service)

[16] = molecular target: T13, MLK2 (Homo sapiens, UniProt Q02779)
T13 construct: DNA label (qPCR read-out); purchased KINOMEscan scanMAX panel (DiscoveRx)

[17] = molecular target: T14, NEK1 (Homo sapiens, UniProt Q96PY6)
T14 construct: DNA label (for qPCR read-out); purchased KINOMEscan scanMAX panel (DiscoveRx)

[18] = molecular target: T15, NEK9 (Homo sapiens, UniProt Q8TD19)
T15 construct: DNA label (qPCR read-out); purchased KINOMEscan (ScanMAX panel service)
T15 sequence (Q8TD19 whole entry): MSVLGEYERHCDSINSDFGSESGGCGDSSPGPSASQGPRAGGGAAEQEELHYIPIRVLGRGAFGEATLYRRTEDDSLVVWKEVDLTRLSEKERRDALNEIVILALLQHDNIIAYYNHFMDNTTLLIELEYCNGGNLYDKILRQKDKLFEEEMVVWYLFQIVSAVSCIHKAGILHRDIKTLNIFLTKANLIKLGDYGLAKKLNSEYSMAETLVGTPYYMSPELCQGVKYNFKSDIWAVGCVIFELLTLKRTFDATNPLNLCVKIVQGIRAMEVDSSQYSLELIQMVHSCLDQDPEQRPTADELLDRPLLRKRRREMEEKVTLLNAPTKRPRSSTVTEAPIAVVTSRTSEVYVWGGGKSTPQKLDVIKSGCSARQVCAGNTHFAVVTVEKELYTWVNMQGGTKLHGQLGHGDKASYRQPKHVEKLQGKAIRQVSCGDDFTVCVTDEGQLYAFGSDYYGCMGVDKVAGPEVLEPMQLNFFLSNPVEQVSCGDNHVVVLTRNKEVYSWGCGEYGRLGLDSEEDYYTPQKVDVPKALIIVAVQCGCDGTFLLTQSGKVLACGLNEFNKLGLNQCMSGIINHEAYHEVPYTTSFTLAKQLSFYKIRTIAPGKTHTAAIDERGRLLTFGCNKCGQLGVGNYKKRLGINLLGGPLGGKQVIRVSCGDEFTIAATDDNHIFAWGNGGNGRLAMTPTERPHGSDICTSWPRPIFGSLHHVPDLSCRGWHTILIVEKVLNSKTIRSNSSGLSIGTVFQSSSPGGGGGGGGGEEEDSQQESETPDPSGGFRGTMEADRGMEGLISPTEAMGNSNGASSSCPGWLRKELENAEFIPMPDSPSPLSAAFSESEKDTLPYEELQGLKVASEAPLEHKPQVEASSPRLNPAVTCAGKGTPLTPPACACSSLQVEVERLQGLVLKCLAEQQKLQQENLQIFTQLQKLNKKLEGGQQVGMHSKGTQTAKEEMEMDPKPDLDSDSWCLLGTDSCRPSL

[19] = molecular target: T16, PDGFRA (Homo sapiens, UniProt P16234)
T16 construct: DNA label (for qPCR read-out); purchased DiscoveRx (KINOMEscan scanMAX service)
T16 sequence (P16234 24-1089): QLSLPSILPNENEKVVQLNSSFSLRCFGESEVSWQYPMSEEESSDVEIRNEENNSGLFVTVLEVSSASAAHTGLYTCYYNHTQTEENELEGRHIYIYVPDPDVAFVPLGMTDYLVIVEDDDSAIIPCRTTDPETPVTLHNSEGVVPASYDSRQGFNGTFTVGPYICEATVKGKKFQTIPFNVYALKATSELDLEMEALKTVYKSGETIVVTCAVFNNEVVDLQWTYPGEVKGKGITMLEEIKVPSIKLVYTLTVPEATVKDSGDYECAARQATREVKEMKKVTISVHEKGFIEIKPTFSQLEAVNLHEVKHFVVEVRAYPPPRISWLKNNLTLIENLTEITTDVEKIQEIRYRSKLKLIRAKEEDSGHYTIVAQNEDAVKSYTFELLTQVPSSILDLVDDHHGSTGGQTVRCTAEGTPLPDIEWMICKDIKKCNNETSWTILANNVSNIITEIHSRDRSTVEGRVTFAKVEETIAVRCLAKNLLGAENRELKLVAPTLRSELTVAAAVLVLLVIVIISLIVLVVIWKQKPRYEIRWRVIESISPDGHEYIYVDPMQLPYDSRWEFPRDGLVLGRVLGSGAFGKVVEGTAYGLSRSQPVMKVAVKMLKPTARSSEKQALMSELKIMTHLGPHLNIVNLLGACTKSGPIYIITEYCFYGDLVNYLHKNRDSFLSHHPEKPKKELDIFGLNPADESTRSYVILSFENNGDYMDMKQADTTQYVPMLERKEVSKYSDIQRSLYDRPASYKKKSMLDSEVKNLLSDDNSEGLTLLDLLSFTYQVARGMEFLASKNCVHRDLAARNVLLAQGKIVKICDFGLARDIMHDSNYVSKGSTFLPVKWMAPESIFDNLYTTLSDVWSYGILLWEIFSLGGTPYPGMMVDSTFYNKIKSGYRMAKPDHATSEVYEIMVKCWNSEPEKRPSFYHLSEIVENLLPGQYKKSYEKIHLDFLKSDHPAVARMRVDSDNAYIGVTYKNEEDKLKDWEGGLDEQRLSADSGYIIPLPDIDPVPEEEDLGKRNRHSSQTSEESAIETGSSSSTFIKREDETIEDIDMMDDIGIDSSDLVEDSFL

[20] = molecular target: T17, PRKD1 (Homo sapiens, UniProt Q15139)
T17 construct: purchased DiscoveRx (KINOMEscan scanMAX panel)

[21] = molecular target: T18, CDC2L5 (Homo sapiens, UniProt Q14004)
T18 construct: purchased DiscoverX (KINOMEscan service)
Source text: (§1) Nat. Biotechnol. 23, 329-336 (2005).
(§2) Percent Control (% Ctrl).

[22] = test system: FLT3 (ITD)
Source text: as §1, §2

[23] = test system: FLT3(ITD, D835V)
Source text: as §1, §2

[24] = test system: FLT3(ITD, F691L)
Source text: as §1, §2

[25] = molecular target: T19, PFCDPK1(P.falciparum) (Plasmodium falciparum, UniProt P62344)
T19 construct: DNA label (for qPCR read-out); purchased DiscoveRx (KINOMEscan scanMAX service)
T19 sequence (P62344 whole entry): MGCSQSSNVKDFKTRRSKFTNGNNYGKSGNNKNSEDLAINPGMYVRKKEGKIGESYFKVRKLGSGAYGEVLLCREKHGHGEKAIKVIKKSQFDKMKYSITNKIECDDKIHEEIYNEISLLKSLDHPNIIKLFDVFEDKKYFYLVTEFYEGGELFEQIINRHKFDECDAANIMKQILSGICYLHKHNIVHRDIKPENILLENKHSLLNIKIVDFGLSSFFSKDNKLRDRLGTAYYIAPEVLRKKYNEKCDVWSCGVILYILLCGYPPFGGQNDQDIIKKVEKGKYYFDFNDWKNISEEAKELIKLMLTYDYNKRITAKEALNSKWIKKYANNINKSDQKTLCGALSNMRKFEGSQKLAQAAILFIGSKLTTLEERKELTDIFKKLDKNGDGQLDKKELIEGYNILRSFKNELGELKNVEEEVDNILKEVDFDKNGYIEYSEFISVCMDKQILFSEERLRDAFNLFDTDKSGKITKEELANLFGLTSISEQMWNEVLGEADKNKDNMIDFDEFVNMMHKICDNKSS
Source text: as §1, §2

[26] = molecular target: T20, PFPK5(P.falciparum) (Plasmodium falciparum, UniProt P61075)
T20 construct: DNA label (for qPCR read-out); purchased DiscoveRx (KINOMEscan scanMAX service)
Source text: as §1, §2

[27] = molecular target: T21, PRP4 (Homo sapiens, UniProt Q13523)
T21 construct: purchased DiscoveRx (KINOMEscan scanMAX panel)
Source text: as §1, §2

[28] = molecular target: T22, PYK2 (Homo sapiens, UniProt Q14289)
T22 construct: purchased DiscoveRx (KINOMEscan scanMAX panel)

[29] = molecular target: T23, RIOK3 (Homo sapiens, UniProt O14730)
T23 construct: DNA label (qPCR read-out); purchased DiscoveRx (KINOMEscan ScanMAX panel)

[30] = molecular target: T24, SRPK2 (Homo sapiens, UniProt P78362)
T24 construct: purchased KINOMEscan (DiscoveRx)

[31] = molecular target: T25, TGFBR1 (Homo sapiens, UniProt P36897)
T25 construct: DNA label (for qPCR read-out); purchased DiscoveRx (KINOMEscan scanMAX panel, contract assay)

[32] = molecular target: T26, TYK2(JH2domain-pseudokinase) (Homo sapiens, UniProt P29597)
T26 construct: JH2domain; DNA label (for qPCR read-out); purchased DiscoveRx (KINOMEscan scanMAX panel)

[33] = molecular target: T27, ULK2 (Homo sapiens, UniProt Q8IYT8)
T27 construct: DNA label (for qPCR read-out); purchased DiscoveRx (KINOMEscan scanMAX panel)

[34] = molecular target: T28, ULK3 (Homo sapiens, UniProt Q6PHR2)
T28 construct: DNA label (for qPCR read-out); purchased DiscoveRx (KINOMEscan scanMAX panel)

[35] = molecular target: YSK4 (Homo sapiens, UniProt Q56UN5)

Row | Compound | % Ctrl [1] | % Ctrl [2] | % Ctrl [3] | % Ctrl [4] | % Ctrl [5] | % Ctrl [6] | % Ctrl [7] | % Ctrl [8] | % Ctrl [9] | % Ctrl [10] | % Ctrl [11] | % Ctrl [12] | % Ctrl [13] | % Ctrl [14] | % Ctrl [15] | % Ctrl [16] | % Ctrl [17] | % Ctrl [18] | % Ctrl [19] | % Ctrl [20] | also measured
1 | [2H]C([2H])([2H])N(C(=O)c1ccc(N2CCCN(c3ccnc4sc(C(N)=O)c(N)c34)CC2)cc1)C([2H])([2H])[2H] [15u_D6, 3-amino-4-(4-(4-(bis(methyl-d3)carbamoyl)phenyl)-1,4-diazepan-1-yl)thieno[2,3-b]pyridine-2-carboxamide] | 93 % Ctrl | 78 % Ctrl | 81 % Ctrl | 91 % Ctrl | 77 % Ctrl | 96 % Ctrl | 100 % Ctrl | 83 % Ctrl | 100 % Ctrl | 100 % Ctrl | 86 % Ctrl | 98 % Ctrl | 97 % Ctrl | 100 % Ctrl | 82 % Ctrl | 95 % Ctrl | 96 % Ctrl | 89 % Ctrl | 65 % Ctrl | 92 % Ctrl | % Ctrl [21]: 80 % Ctrl; % Ctrl [22]: 72 % Ctrl; % Ctrl [23]: 34 % Ctrl; % Ctrl [24]: 75 % Ctrl; % Ctrl [25]: 61 % Ctrl; % Ctrl [26]: 67 % Ctrl; % Ctrl [27]: 88 % Ctrl; % Ctrl [28]: 84 % Ctrl; % Ctrl [29]: 95 % Ctrl; % Ctrl [30]: 100 % Ctrl; % Ctrl [31]: 100 % Ctrl; % Ctrl [32]: 59 % Ctrl; % Ctrl [33]: 83 % Ctrl; % Ctrl [34]: 79 % Ctrl; % Ctrl [35]: 53 % Ctrl
2 | CN(C)C(=O)c1ccc(N2CCCN(c3ccnc4sc(C(N)=O)c(N)c34)CC2)cc1 [15u, 3-amino-4-(4-(4-(dimethylcarbamoyl)phenyl)-1,4-diazepan-1-yl)thieno[2,3-b]pyridine-2-carboxamide] | 100 % Ctrl | 90 % Ctrl | 100 % Ctrl | 100 % Ctrl | 57 % Ctrl | 100 % Ctrl | 92 % Ctrl | 81 % Ctrl | 97 % Ctrl | 100 % Ctrl | 90 % Ctrl | 92 % Ctrl | 89 % Ctrl | 98 % Ctrl | 88 % Ctrl | 100 % Ctrl | 80 % Ctrl | 100 % Ctrl | 70 % Ctrl | 88 % Ctrl | % Ctrl [21]: 71 % Ctrl; % Ctrl [22]: 82 % Ctrl; % Ctrl [23]: 41 % Ctrl; % Ctrl [24]: 95 % Ctrl; % Ctrl [25]: 94 % Ctrl; % Ctrl [26]: 68 % Ctrl; % Ctrl [27]: 100 % Ctrl; % Ctrl [28]: 97 % Ctrl; % Ctrl [29]: 100 % Ctrl; % Ctrl [30]: 93 % Ctrl; % Ctrl [31]: 100 % Ctrl; % Ctrl [32]: 73 % Ctrl; % Ctrl [33]: 90 % Ctrl; % Ctrl [34]: 96 % Ctrl; % Ctrl [35]: 74 % Ctrl

From patent US11572369B2, “Bicyclic pyridine compositions and methods of using the same for cancer therapy” (UNIVERSITY OF SOUTH CAROLINA, priority 2019, dated 2023)
